Laboratory results from patent publication US7179823B1, “5-membered n-heterocyclic compounds with hypoglycemic and hypolipidemic activity” (Takeda Pharmaceutical Company Limited, priority 1999, dated 2007).

Row | SMILES | melting point
1 | O=C(O)CCc1cn(Cc2ccc(OCc3ccccc3)cc2)cc1-c1ccccc1 [Example 10, 3-[1-(4-benzyloxybenzyl)-4-phenyl-3-pyrrolyl]propionic acid] | 130 to 131 °C
2 | Cc1oc(-c2ccccc2)nc1CCOc1ccc(Cn2cc(CCC(=O)O)c(-c3ccccc3)c2)cc1 [Example 14, 3-[1-[4-[2-(5-methyl-2-phenyl-4-oxazolyl)ethoxy]benzyl]-4-phenyl-3-pyrrolyl]propionic acid] | 147 to 148 °C
3 | O=C(O)CCc1cn(Cc2ccc(OCc3csc(-c4cnccn4)n3)cc2)cc1-c1ccccc1 [Example 16, 3-[4-phenyl-1-[4-[2-(2-pyrazinyl)-4-thiazolylmethoxy]benzyl]-3-pyrrolyl]propionic acid] | 137 to 138 °C
4 | O=C(O)CCc1cn(Cc2ccc(OCc3ccoc3)cc2)cc1-c1ccccc1 [Example 18, 3-[1-[4-(3-furylmethoxy)benzyl]-4-phenyl-3-pyrrolyl]propionic acid] | 110 to 111 °C
5 | Cc1sc(-c2ccccc2)nc1COc1ccc(Cn2cc(CCC(=O)O)c(-c3ccccc3)c2)cc1 [Example 28, 3-[1-[4-(5-methyl-2-phenyl-4-thiazolylmethoxy)benzyl]-4-phenyl-3-pyrrolyl]propionic acid] | 157 to 158 °C
6 | O=C(O)CCc1cn(Cc2ccc(OCc3cccc(-c4cnccn4)c3)cc2)cc1-c1ccccc1 [Example 36, 3-[4-phenyl-1-[4-[3-(2-pyrazinyl)benzyloxy]benzyl]-3-pyrrolyl]propionic acid] | 91 to 92 °C
7 | Cc1nc(COc2ccc(Cn3cc(CCC(=O)O)c(-c4ccccc4)c3)cc2)cs1 [Example 42, 3-[1-[4-(2-methyl-4-thiazolylmethoxy]benzyl]-4-phenyl-3-pyrrolyl]propionic acid] | 113 to 114 °C
8 | CN(CCOc1ccc(Cn2cc(CCC(=O)O)c(-c3ccccc3)c2)cc1)c1ccccn1 [Example 49, 3-[1-[4-[2-[N-methyl-N-(2-pyridyl)amino]ethoxy]benzyl]-4-phenyl-3-pyrrolyl]propionic acid] | 110 to 111 °C
9 | O=C(O)c1cn(Cc2cccc(Oc3ccccc3)c2)nc1-c1ccccc1 [Example 50, 1-(3-phenoxybenzyl)-3-phenyl-1H-pyrazole-4-carboxylic acid] | 148 to 149 °C
10 | Cc1oc(-c2ccccc2)nc1COc1ccc2cc(Cn3cc(CCC(=O)O)c(-c4ccccc4)c3)ccc2c1 [Example 54, 3-[1-[6-(5-methyl-2-phenyl-4-oxazolylmethoxy)-2-naphthylmethyl]-4-phenyl-3-pyrrolyl]propionic acid] | 122 to 123 °C
11 | O=C(O)CCc1cn(Cc2ccc3cc(OCc4ccccc4F)ccc3c2)cc1-c1ccccc1 [Example 56, 3-[1-[6-(2-fluorobenzyloxy)-2-naphthylmethyl]-4-phenyl-3-pyrrolyl]propionic acid] | 143 to 144 °C
12 | Cc1oc(-c2ccccc2)nc1COc1ccc(Cn2cc(CCC(=O)O)c(-c3ccccn3)c2)cc1 [Example 64, 3-[1-[4-(5-methyl-2-phenyl-4-oxazolylmethoxy)benzyl]-4-(2-pyridyl)-3-pyrrolyl]propionic acid] | 155 to 156 °C
13 | O=C(O)CCc1cn(Cc2cc(OCc3ccccc3)cc(OCc3csc(-c4cnccn4)n3)c2)cc1-c1ccccc1 [Example 75, 3-[1-[3-benzyloxy-5-[2-(2-pyrazinyl)-4-thiazolylmethoxy]benzyl]-4-phenyl-3-pyrrolyl]propionic acid] | 109 to 110 °C
14 | CCOC(=O)c1cn(Cc2ccc(OCc3ccccc3)cc2)nc1-c1ccccc1 [Example 76, ethyl 1-(4-benzyloxybenzyl)-3-phenyl-1H-pyrazole-4-carboxylate] | 102 to 103 °C

Second part, the molecule after the results:

Row | melting point | SMILES
15 | 154 to 155 °C | Cc1oc(-c2ccccc2)nc1COc1ccc(Cn2cc(/C=C/C(=O)O)c(-c3ccccc3)c2)cc1 [Example 5, (E)-3-[1-[4-(5-methyl-2-phenyl-4-oxazolylmethoxy)benzyl]-4-phenyl-3-pyrrolyl]propenoic acid]
16 | 109 to 110 °C | O=C(O)CCc1cn(Cc2ccc(OCc3ccccn3)cc2)cc1-c1ccccc1 [Example 11, 3-[4-phenyl-1-[4-(2-pyridylmethoxy)benzyl]-3-pyrrolyl]propionic acid]
17 | 124 to 125 °C | O=C(O)CCc1cn(Cc2ccc(OCc3ccncc3)cc2)cc1-c1ccccc1 [Example 13, 3-[4-phenyl-1-[4-(4-pyridylmethoxy)benzyl]-3-pyrrolyl]propionic acid]
18 | 127 to 128 °C | O=C(O)CCc1cn(Cc2ccc(OCc3cccs3)cc2)cc1-c1ccccc1 [Example 20, 3-[4-phenyl-1-[4-(2-thienylmethoxy)benzyl]-3-pyrrolyl]propionic acid]
19 | 118 to 119 °C | O=C(O)CCc1cn(Cc2ccc(OCc3ccsc3)cc2)cc1-c1ccccc1 [Example 22, 3-[4-phenyl-1-[4-(3-thienylmethoxy)benzyl]-3-pyrrolyl]propionic acid]
20 | 158 to 159 °C | Cc1ncccc1COc1ccc(Cn2cc(CCC(=O)O)c(-c3ccccc3)c2)cc1 [Example 26, 3-[1-[4-(2-methyl-3-pyridylmethoxy)benzyl]-4-phenyl-3-pyrrolyl]propionic acid]
21 | 117 to 118 °C | O=C(O)CCc1cn(Cc2ccc(OCc3csc(-c4ccccn4)n3)cc2)cc1-c1ccccc1 [Example 32, 3-[4-phenyl-1-[4-[2-(2-pyridyl)-4-thiazolylmethoxy)benzyl]-3-pyrrolyl]propionic acid]
22 | 149 to 150 °C | O=C(O)CCc1cn(Cc2ccc(OCc3csc(-c4ccncc4)n3)cc2)cc1-c1ccccc1 [Example 34, 3-[4-phenyl-1-[4-[2-(4-pyridyl)-4-thiazolylmethoxy)benzyl]-3-pyrrolyl]propionic acid]
23 | 118 to 119 °C | O=C(O)CCc1cn(Cc2ccc(OCc3csc(-c4cccnc4)n3)cc2)cc1-c1ccccc1 [Example 46, 3-[4-phenyl-1-[4-[2-(3-pyridyl)-4-thiazolylmethoxy]benzyl]-3-pyrrolyl]propionic acid]
24 | 119 to 120 °C | CCOC(=O)/C=C/c1cn(Cc2ccc3cc(OCc4ccccc4)ccc3c2)cc1-c1ccccc1 [Example 52, ethyl(E)-3-[1-(6-benzyloxy-2-naphthylmethyl)-4-phenyl-3-pyrrolyl]propenoate]
25 | 158 to 159 °C | O=C(O)CCc1cn(Cc2ccc3cc(OCc4cccnc4)ccc3c2)cc1-c1ccccc1 [Example 58, 3-[4-phenyl-1-[6-(3-pyridylmethoxy)-2-naphthylmethyl]-3-pyrrolyl]propionic acid]
26 | 163 to 164 °C | Cc1ncccc1COc1ccc2cc(Cn3cc(CCC(=O)O)c(-c4ccccc4)c3)ccc2c1 [Example 60, 3-[1-[6-(2-methyl-3-pyridylmethoxy)-2-naphthylmethyl]-4-phenyl-3-pyrrolyl]propionic acid]
27 | 111 to 112 °C | COc1cc(Cn2cc(CCC(=O)O)c(-c3ccccc3)c2)cc(OCc2csc(-c3cnccn3)n2)c1 [Example 71, 3-[1-[3-methoxy-5-[2-(2-pyrazinyl)-4-thiazolylmethoxy]benzyl]-4-phenyl-3-pyrrolyl]propionic acid]
28 | 97 to 98 °C | CCOc1cc(Cn2cc(CCC(=O)O)c(-c3ccccc3)c2)cc(OCc2csc(-c3cnccn3)n2)c1 [Example 73, 3-[1-[3-ethoxy-5-[2-(2-pyrazinyl)-4-thiazolylmethoxy]benzyl]-4-phenyl-3-pyrrolyl]propionic acid]
